Entries after “also recorded” stand apart in the source; their conditions may differ.
Tests used:
Type in all cases: in vivo, Arabidopsis thaliana
BSS1-GFP [1] = experiment: Fluorescence microscopy of punctate BSS1-GFP in transgenic seedlings; details: for number of intense puncta per cell: 7-day-old BSS1-GFP seedlings treated 3 hours with 3 μM Brz or 100 μM BL; for single fluorescence intensity of each punctum: Brz versus BL treatment conditions, 3 hours; for onset of responsiveness of punctate BSS1-GFP: time after treatment, roots and hypocotyls
Protocol: FIGS. 5C to 5E show analysis of BSS1-GFP puncta signal intensities upon treatment with Brz and BL. Seven-day-old BSS1-GFP transgenic seedlings were treated for 3 hours with 3 μM Brz (Brz), an equal volume of DMSO (Mock), or 100 μM BL (BL). […] The results are represented as the mean±s.d. The signal intensity was measured using ImageJ software. […]
(§1) The plants that were transformed with the CaMV35S-BSS1-GFP construct BSS1(-GFP)-OX and the CaMV35S-BIL1-GFP construct BIL1-GFP-OX were observed via confocal laser scanning microscopy with a BX60 fluorescence microscope (Olympus) equipped with a Model CSU10 confocal scanner (Yokogawa Electric) and LSM700 (Zeiss).
FM4-64 (Molecular Probes) dissolved in water was applied to Arabidopsis plants at a final concentration of 4 μM for 3 minutes. The plants were washed with water to remove the excessive amount of the stain and observed. A DMSO-base stock solution of Brefeldin A (BFA) (Sigma) was applied to the cells at a final concentration of 50 μM for 1 hour.
(§2) The images were analyzed using ImageJ software. To measure the ratio of the nuclear and cytosolic signals of BIL1-GFP for each cell, the signal intensities in the nucleus and cytosol were calculated from the mean of the intensity in each area. The nuclear to cytosolic signal ratio was then calculated for each cell. The average nuclear/cytosolic signal ratio and standard error were calculated from measurements of at least 54 cells from each line (FIG. 9B). Line scan measurements from the vacuole to the nucleus through the cytosol were performed, and representative plot profiles of sample measurements are presented in FIG. 5C.

BIL1-GFP = experiment: Fluorescence microscopy of BIL1-GFP localization in root cells; details: for punctate BIL1-GFP signals: root cells
Protocol: The results are presented as the mean±s.d. (n=61, *P<0.01, Student's t-test). […] The results are presented as the mean±s.d. (n=27, *P<0.01, Student's t-test).
as §1, §2

BSS1 pro:GUS = experiment: GUS staining of BSS1 pro:GUS transgenic seedlings; details: 3-day-old seedlings on medium with 3 μM Brz, dark or light
Protocol: The data represent the mean±s.d. from 4 independent experiments. […] The samples were grown in the same conditions as FIG. 4A for 3 days (scale bar: 5 mm). FIGS. 4C to 4E show the results of determining the BSS1 expression level by qRT-PCR. Wild-type (WT) seedlings grown on medium with different concentrations of Brz (FIG. 4C) and BL (FIG. 4D) in the light for 7 days and dark-grown seedlings exposed to light for 0-7 days (Figure E) were used for analysis of the BSS1 expression level. The data represent the mean±s.d. of 4 independent experiments. The seedlings of the BSS1 promoter: GUS transgenic plants were used for the histochemical detection of GUS expression. The samples were stained at 37° C. overnight in GUS staining solution as previously described (Ito and Fukuda, 2002, ZEN1 is a key enzyme in the degradation of nuclear DNA during programmed cell death of tracheary elements. Plant Cell 14: 3201-3211). To test the induction of GUS expression, 3-day-old transgenic seedlings were grown on medium with 3 μM Brz or dimethyl sulfoxide (DMSO) as a control.

BSS1-GFP [2] = experiment: Non-reducing immunoblot analysis of BSS1-GFP oligomer; details: non-reducing conditions (without DTT); after BL treatment
Protocol: Oligomeric BSS1-GFP and monomeric BSS1-GFP are shown by arrowhead O and arrowhead M, respectively. […] Total lysates were prepared from the transgenic plants and ultracentrifuged to separate the insoluble (precipitation) and soluble (supernatant) fractions. The insoluble fractions were then treated with the indicated surfactants and subjected to further ultracentrifugation. The resulting supernatants and pellets were analyzed by immunoblotting. As a control, the indicated surfactant-treated BIL2-GFP (protein localized to the mitochondria) samples were centrifuged as above.
[…] The proteins were separated by SDS-PAGE (10% acrylamide gel). After electrophoresis, the proteins were electrophoretically transferred to a Hybond ECL nitrocellulose membrane (Amersham). […]

CC(O)(c1ccccc1)C(Cc1ccc(Cl)cc1)n1cncn1 (centres unmarked) [Brz, brassinazole]
fluorescence intensity of the puncta per cell with respect to the whole-cell fluorescence intensity (BSS1-GFP [1]; 7-day-old BSS1-GFP seedlings treated 3 hours with 3 μM Brz): increase
number of intense puncta per cell (BSS1-GFP [1]; versus mock): increased
cytosolic fluorescence signal (BSS1-GFP [1]; 7-day-old BSS1-GFP seedlings treated 3 hours with 3 μM Brz, versus mock): decreased
single fluorescence intensity of each punctum (BSS1-GFP [1]): not different
onset of responsiveness of punctate BSS1-GFP (BSS1-GFP [1]): 15 min
enhanced nuclear BIL1-GFP signal (BIL1-GFP; bop1-3 bop2-1 background, root cells of 4-day-old seedlings, 3 μM Brz): strongly maintained
punctate BIL1-GFP signals (BIL1-GFP; bop1-3 bop2-1 plants, treated with 3 μM Brz): not detected
nuclear-to-cytosolic ratio of the BIL1-GFP signal (BIL1-GFP; wild-type background, root cells of 4-day-old seedlings, 3 μM Brz): decreased
punctate BIL1-GFP signals (BIL1-GFP; wild-type background, after 3 μM Brz treatment): many punctate BIL1-GFP signals in the cytosol; also recorded: observed
BSS1 pro:GUS reporter expression (BSS1 pro:GUS): caused BSS1 expression in the hypocotyls in the dark and in the cotyledons under light and dark conditions

CC(C)[C@H](C)[C@@H](O)[C@H](O)[C@@H](C)[C@H]1CC[C@H]2[C@@H]3COC(=O)[C@H]4C[C@H](O)[C@H](O)C[C@]4(C)[C@H]3CC[C@]12C [BL, brassinolide]
number of intense puncta per cell (BSS1-GFP [1]; versus mock): decreased
single fluorescence intensity of each punctum (BSS1-GFP [1]): not different
onset of responsiveness of punctate BSS1-GFP (BSS1-GFP [1]): 15 min
amount of the oligomeric form of BSS1-GFP (BSS1-GFP [2]): significantly decreased
